# Test results: patent publication US20250368639A1, “SOLID FORMS OF A COMPOUND FOR TREATING OR PREVENTING HYPERURICEMIA OR GOUT” (ATOM THERAPEUTICS CO., LTD, priority 2022, published 2025)
# Columns and labels:
# Format in all cases: physicochemical
# [1] = Long-term stability of Compound I Form 2 (XRPD)
# Experimental: The stability of Compound I Form 2 was analyzed by the following two experiments.
# Experiment A: The following is an X-ray Powder Diffraction Analytical method used to obtain the data shown in FIG. 43 and FIG. 44, and which complies with ChP<0451>/USP/NF<941>/EP10.6 2.9.33. Standard XRPD patterns were collected using a Bruker D8 Advance diffractometer or equivalent instrument.
# Parameters for collecting the XRPD shown in FIG. 43 and FIG. 44 is as follows:
# The XRPD patterns shown in FIG. 45 and FIG. 46 were collected using a Bruker D2 Phaser X-ray diffractometer. Detector: PSD LynxEye; Sample holder: Zero background sample holder or equivalent; Software: DIFFRAC. Measurement Center, Version V6.5.0 or equivalent; Diffractometer Settings: Diffractometer type: 02 phaser; Goniometer Type: Theta/Theta; Sample Stage: Standard rotating stage; Goniometer Diameter: 282.2 mm; Divergence slit: 1.0 mm; Primary seller slit: 2.5°; Secondary seller slit: 2.5°; Airscatter screen module: 1.0 mm; Tube Element: Cu; Tube parameters: voltage 30 kV; current 10 mA; Scan Parameters: SSD160: Locked coupled; SSD160-2: coupled Two Theta/Theta Scan Type: SSD160: Locked coupled; SSD160-2: coupled Two Theta/Theta; Continuous PSD fast Scan Mode: Continuous PSD fast scan; Rotation Speed: 20 rpm; Start: 3° ˜40° (2 0); Scan Step: 0.02° (2 0); Scan Speed: 0.2s/step; Detector opening: 4.5°; Sample Analysis; Test the sample with the Diffractometer Settings and Scan Parameters. The powder X-ray diffraction pattern of the sample was recorded and calculations were performed according to Bruker D2 Phaser X-ray Diffractometer User Manual V6-Identification of Crystal Form by X-Ray Powder Diffraction (XRPD)-Bruker D2 Phaser.
# [2] = Solubility in water, buffers and bio-relevant media (37° C., 24 h shaking, HPLC); conditions: 37° C., 24 h
# Experimental: The solubility of Form 1, Form 2, Form 5D, Form 6, Form 8, and Form 11 was analyzed in water, 0.1NaqueousHCl, pH4.5 acetate buffer solution, pH6.8 phosphate buffer solution, simulated gastric fluid (SGF), Fasted State Simulated Intestinal Fluid (FaSSIF), and Fed State Simulated Intestinal Fluid (FeSSIF).
# About 5 mg or 10 mg of sample was weighed out into each vial and mixed with about 5 ml of medium to form a solution. The target concentration for the potassium salt in water was 2 mg/ml; and the target concentration for all other forms were 1 mg/mL. All samples were kept shaking at 200 rounds per minute (rpm) under 37° C. for 24 hours. The pH value of these samples were determined after shaking for 24 hours. Subsequently, they were centrifuged at the speed of 12000 rpm for 2 mins. The supernatant was diluted with methanol as necessary, and the concentrations were determined by HPLC. When the solubility of potassium salt was tested in water, the supernatant was diluted 100 times, while no other samples were diluted. The HPLC analysis utilizes Agilent Eclipse XDB-C8 4.6*150 mm, 5 μm column at 40° C., a mobile phase of 0.1% TFA: ACN=70:30, an injection volume of 10 μl, a flow rate of 1.0 ml/min, a diluent of methanol, and a detection wavelength of 234 nm.
# [3] = Suspensions for animal formulation in 0.5% CMC-Na (XRPD); conditions: about 30 mg in 30 ml, sonication
# Experimental: About 30 mg of Form 1, Form 2, and Form 5D were each added into a respective 40 ml glass bottle and mixed with 30 ml of 0.5% CMC-Na solution. The solids were dispersed uniformly in the solution with the aid of sonication. After that, the solids were isolated by centrifugation, dried at room temperature, and the dry solid analyzed with XRPD.
# [4] = Visual solubility of Form 1 in common solvents; conditions: thermodynamic from solid
# Experimental: Solubility of Form 1 was tested visually. About 5 mg of Form I was accurately weighed into a glass vial of 5 ml. Small amounts of solvent was added gradually into the vial until the compound was dissolved or when the total amount added reached 5 ml. The cumulative volume of the solvent was recorded.
# [5] = Heating study of Form 1; conditions: 110° C. about 10 minutes / 100° C. 20 minutes
# Experimental: About 150 mg of Form 1 was heated to 110° C. and maintained for about 10 minutes. The sample color changed from light yellow to dark yellow. The darker sample was evaluated with XRPD. The sample color changed back to light yellow at the conclusion of the XRPD evaluation, which was similar to the color before the heating treatment. […] Another sample of Form 1 was heated in an oven at 100° C. for 20 minutes and subsequently analyzed for the moisture content using KF method. The moisture content of heated Form 1 was 6.8%. […] The product is unstable and will rapidly absorb water.
smiles,measurement,setting,value
"CCc1nc2ccccn2c1C(=O)c1cc(Br)c(O)c(C#N)c1 [Form 2, 3-bromo-5-[(2-ethylimidazo[1,2-a]pyridin-3-yl)carbonyl]-2-hydroxybenzonitrile]",Period over which the form remains stable (XRPD),"[1]; Experiment A, 25° C.±2° C./60% RH±5% RH",at least 12 months
same,Period over which the form remains stable (XRPD),"[1]; Experiment A, 40° C.±2° C./75% RH±5% RH",at least 6 months
same,Period over which the form remains stable (XRPD),"[1]; Experiment B, 25° C.±2° C./60% RH±5% RH",at least 48 months
same,Period over which the form remains stable (XRPD),"[1]; Experiment B, 40° C.±2° C./75% RH±5% RH",at least 6 months
same,Solubility,[2]; 0.1N HCl,0.0038 mg/mL
same,Highest concentration among the media,[2],around 40 μg/ml
same,Solubility in the buffer solution and bio-relevant medium,[2],low solubilities
same,Solubility,[2]; FaSSIF,0.0418 mg/mL
same,Solubility,[2]; FeSSIF,0.0028 mg/mL
same,Solubility,[2]; SGF,0.003 mg/mL
same,Solubility,[2]; Water,0.02 mg/mL
same,Solubility,[2]; pH 4.5 acetate buffer,<0.001 mg/mL
same,Solubility,[2]; pH 6.8 phosphate buffer,0.0241 mg/mL
same,Crystal form after dispersion in 0.5% CMC-Na solution (XRPD),[3],transformed into Form 1
"CCc1nc2ccccn2c1C(=O)c1cc(Br)c(O)c(C#N)c1 [Form 1, 3-bromo-5-[(2-ethylimidazo[1,2-a]pyridin-3-yl)carbonyl]-2-hydroxybenzonitrile]",Solubility,"[4]; acetone, organic solvent or mixture",< 1 mg/mL
same,Solubility,"[4]; acetone:water 3:1, organic solvent or mixture, Acetone:water = 3:1",< 1 mg/mL
same,Solubility,"[4]; acetonitrile (ACN), organic solvent or mixture",< 1 mg/mL
same,Solubility,"[4]; dichloromethane (DCM), organic solvent or mixture",< 1 mg/mL
same,Solubility,"[4]; dimethylformamide (DMF), organic solvent or mixture",> 25 mg/mL
same,Solubility,"[4]; dimethylsulfoxide (DMSO), organic solvent or mixture",> 25 mg/mL
same,Solubility,"[4]; ethanol, organic solvent or mixture, Ethanol (EtOH)",< 1 mg/mL
same,Solubility,"[4]; ethyl acetate, organic solvent or mixture, Ethyl acetate (EtAc)",< 1 mg/mL
same,Solubility,"[4]; heptane, organic solvent or mixture",< 1 mg/mL
same,Solubility,"[4]; isopropyl alcohol, organic solvent or mixture",< 1 mg/mL
same,Solubility,"[4]; methanol, organic solvent or mixture, Methanol (MeOH)",< 1 mg/mL
same,Solubility,"[4]; methanol:water 3:1, organic solvent or mixture, Methanol:water = 3:1",< 1 mg/mL
same,Solubility,"[4]; methyl ethyl ketone (MEK), organic solvent or mixture",< 1 mg/mL
same,Solubility,"[4]; tetrahydrofuran (THF), organic solvent or mixture",~3 mg/mL
same,Solubility,"[4]; toluene, organic solvent or mixture",< 1 mg/mL
same,Solubility,"[4]; water, Water (H2O)",< 1 mg/mL
same,Solubility,[2]; 0.1N HCl,0.005 mg/mL
same,Solubility in the buffer solution and bio-relevant medium,[2],low solubilities
same,Solubility,[2]; FaSSIF,0.0166 mg/mL
same,Solubility,[2]; FeSSIF,0.0019 mg/mL
same,Solubility,[2]; SGF,0.0029 mg/mL
same,Solubility,[2]; Water,0.0094 mg/mL
same,Solubility,[2]; pH 4.5 acetate buffer,0.001 mg/mL
same,Solubility,[2]; pH 6.8 phosphate buffer,0.0198 mg/mL
same,Crystal form after dispersion in 0.5% CMC-Na solution (XRPD),[3],did not change
same,Behaviour upon heating,[5],may lose water upon heating
